Assay results reported in publication PMC6908673, “Tuning the in vitro sensing and signaling properties of cyanobacterial PII protein by mutation of key residues” (Scientific Reports, 2019).
Each block holds one molecule with its values, some of them ahead of it.

Assays:
PII-PipX complex = target: T1, PII-PipX complex (Synechococcus elongatus, UniProt P0A3F4); test: indirect SPR, His6-PipX on Ni-NTA chip; assay type: binding; conditions: 10 mM Hepes pH 7.5, 150 mM NaCl, 1 mM MgCl2, 25 °C
T1 construct: gene glnB; Strep-tagged PII trimer pre-incubated with His6-tagged PipX; three PipX per PII trimer; both from E. coli

SeNAGK = target: T2, SeNAGK (Synechococcus elongatus, UniProt Q6V1L5); test: coupled NAGK assay (pyruvate kinase/lactate dehydrogenase, NADH oxidation); assay type: biochemical
T2 construct: gene argB; His6-tagged, E. coli BL21(DE3), His-Trap; hexamer, about 194 kDa
T2 sequence (Q6V1L5 1-301): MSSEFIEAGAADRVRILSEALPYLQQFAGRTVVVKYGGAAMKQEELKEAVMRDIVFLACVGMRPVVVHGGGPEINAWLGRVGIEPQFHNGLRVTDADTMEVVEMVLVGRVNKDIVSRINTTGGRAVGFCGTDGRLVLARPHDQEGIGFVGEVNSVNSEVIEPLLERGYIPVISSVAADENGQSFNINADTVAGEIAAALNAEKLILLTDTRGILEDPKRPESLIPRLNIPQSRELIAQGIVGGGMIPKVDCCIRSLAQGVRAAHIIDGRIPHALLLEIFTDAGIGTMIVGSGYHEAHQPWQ
From the text: coupled NAGK assay (pyruvate kinase/lactate dehydrogenase, NADH oxidation) on SeNAGK | Arginine feedback inhibition of non-complexed SeNAGK occurred with a half maximal inhibitory concentration (IC50) of […]

SeNAGK + SePII = target: T3, SeNAGK + SePII (Synechococcus elongatus, UniProt Q6V1L5); test: as above; assay type: biochemical; conditions: 25 µM arginine; 2-OG acts on PII site
T3 construct: gene argB; His6-tagged SeNAGK hexamer mixed with Strep-tagged SePII; two PII trimers sandwich one NAGK hexamer (WT); both from E. coli; with Nitrogen regulatory protein P-II

[1] = substrate: CC(=O)N[C@@H](CCC(=O)O)C(=O)O; test: as above; assay type: biochemical, Synechococcus elongatus; conditions: without PII; without arginine
From the text: coupled NAGK assay (pyruvate kinase/lactate dehydrogenase, NADH oxidation) on SeNAGK

[2] = substrate: CC(=O)N[C@@H](CCC(=O)O)C(=O)O; test: as above; assay type: biochemical, Synechococcus elongatus; conditions: with SePII (WT); without arginine
From the text: coupled NAGK assay (pyruvate kinase/lactate dehydrogenase, NADH oxidation) on SeNAGK + SePII

[3] = target: the molecule itself; test: SEC-MALS; PII mixed with NAGK (molar ratio 3:1 PII trimers to NAGK hexamers) 10 min at room temperature; Superose 6 Increase 10/300 GL; 100 mM Tris-HCl pH 7.8, 300 mM NaCl, 2 mM MgCl2, 2% glycerol; eluted fractions checked by SDS-PAGE

T1 sequence (P0A3F4 whole entry): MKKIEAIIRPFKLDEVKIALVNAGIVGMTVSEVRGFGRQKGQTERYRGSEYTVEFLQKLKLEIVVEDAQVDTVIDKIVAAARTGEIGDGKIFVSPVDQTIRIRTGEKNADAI
T1 sequence (Q7X386 1-89 partner): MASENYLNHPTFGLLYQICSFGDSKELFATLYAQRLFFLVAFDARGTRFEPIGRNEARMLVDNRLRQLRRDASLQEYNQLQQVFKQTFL
T3 sequence (P0A3F4 whole entry partner, one chain of several): as the sequence (P0A3F4 whole entry) above

Molecule: Nc1ncnc2c1ncn2[C@@H]1O[C@H](COP(=O)(O)OP(=O)(O)O)[C@@H](O)[C@H]1O [ADP]
indirect SPR, His6-PipX on Ni-NTA chip (PII-PipX complex; 1 mM ADP): strong positive effect of ADP on the interaction of PII (WT) with PipX

IC50 (SeNAGK): 11 µM
Molecule: N=C(N)NCCC[C@H](N)C(=O)O [arginine]

Molecule: O=C(O)CCC(=O)C(=O)O [2-OG]
coupled NAGK assay (pyruvate kinase/lactate dehydrogenase, NADH oxidation) (SeNAGK + SePII): complex of SeNAGK-SePII (WT) showed the typical inhibitory effect upon 2-OG addition | indirect SPR, His6-PipX on Ni-NTA chip (PII-PipX complex; 1 mM 2-OG with 1 mM ATP): 2-OG in presence of ATP impaired PipX-PII (WT) complex formation

B1: SeNAGK (Synechococcus elongatus PCC 7942 = FACHB-805) (protein)
chain: T2 sequence (Q6V1L5 1-301)
notes: His6-tagged, E. coli BL21(DE3), His-Trap; hexamer, about 194 kDa
Km [1]: 5.1 ± 0.9 mM

B2: SeNAGK + SePII (Synechococcus elongatus PCC 7942 = FACHB-805) (protein)
chain: T2 sequence (Q6V1L5 1-301)
notes: His6-tagged SeNAGK hexamer mixed with Strep-tagged SePII; two PII trimers sandwich one NAGK hexamer (WT); both from E. coli; with Nitrogen regulatory protein P-II
Km [2]: 2.9 ± 0.6 mM

B3: SeNAGK, N-acetyl-L-glutamate kinase from S. elongatus PCC7942, His6-tagged (enzyme)
chain: T2 sequence (Q6V1L5 1-301)
notes: N-acetyl-L-glutamate kinase (NAGK) of Synechococcus elongatus PCC 7942; hexamer; also called His6-NAGK
stoichiometry N [3]: 6
